Data set [1] deals with T1, Leishmania major pteridine reductase 1 (LmPTR1) (Leishmania major, UniProt Q01782).
T1 construct: made in house
T1 sequence (Q01782 1-288): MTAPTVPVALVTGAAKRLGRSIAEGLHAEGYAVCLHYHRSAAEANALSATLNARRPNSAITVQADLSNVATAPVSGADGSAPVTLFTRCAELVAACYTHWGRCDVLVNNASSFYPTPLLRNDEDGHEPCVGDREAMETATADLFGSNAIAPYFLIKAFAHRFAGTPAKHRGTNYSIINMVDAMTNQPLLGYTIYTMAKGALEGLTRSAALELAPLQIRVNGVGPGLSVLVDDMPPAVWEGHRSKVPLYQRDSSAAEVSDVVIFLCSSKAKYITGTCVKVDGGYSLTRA
To be noted: flavonols 1A–3A, cited from earlier work; for IC50: evaluated as in previous paper.

Data set [2] addresses T2, Trypanosoma brucei pteridine reductase 1 (TbPTR1) (Trypanosoma brucei brucei, UniProt O76290).
T2 construct: made in house
T2 sequence (O76290 1-268): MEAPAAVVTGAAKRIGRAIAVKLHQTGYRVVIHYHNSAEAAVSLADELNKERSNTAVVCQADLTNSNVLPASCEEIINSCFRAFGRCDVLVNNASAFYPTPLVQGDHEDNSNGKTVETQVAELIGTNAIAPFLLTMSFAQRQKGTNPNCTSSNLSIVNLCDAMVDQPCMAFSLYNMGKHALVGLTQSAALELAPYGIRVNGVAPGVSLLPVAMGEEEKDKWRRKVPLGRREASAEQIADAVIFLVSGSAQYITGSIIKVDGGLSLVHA
To be noted: flavonols 1A–3A, cited from earlier work; for IC50: evaluated as in previous paper.

The test system of data set [3] is L. infantum (MHOM/BR/1972/BH46) intracellular amastigotes. The data set is described as follows: Activity against L. infantum intramacrophage amastigotes (high-content imaging). The settings on record: Leishmania infantum; read-out: IC50 (reference compound for L. infantum). The class given is cell-based, Leishmania infantum. As for the experimental part: […] THP-1 cells were plated onto 384-well plates in Roswell Park Memorial Institute (RPMI) 1640 medium, Hyclone, GE Healthcare Life Sciences (Issaquah, WA, USA) containing 50 ng/mL phorbol 12-myristate 13-acetate (PMA, Sigma-Aldrich, Saint Louis, MS, USA), and incubated for 48 h. Then, 6 day-old promastigotes were added, at a ratio of 50 parasites per each THP-1 cell seeded earlier. After 24 h of infection, negative controls (0.5% DMSO), positive controls (10 μM amphotericin B) or compounds were added to the plate. Assay plates were incubated for 48 h, and then fixed with 4% paraformaldehyde and stained with Draq 5. The Operetta high-content automated imaging system was used to acquire images and the Harmony Software was optimized to quantify the host cell number, the infection ratio and the number of parasites per infected cell. The ratio between infected cells and total number of cells is then calculated, and defined as the Infection Ratio (IR). The raw data for IR values was normalized to negative—DMSO (mock)-treated infected cells—and positive (non-infected cells) controls to determine the normalized antiparasitic activity.

In data set [4] the test system is T. brucei bloodstream forms. In words: Activity against T. brucei bloodstream forms (resazurin-based assay). The format is cell-based, Trypanosoma brucei. The settings on record: Trypanosoma brucei; read-out: IC50 (reference compound for T. brucei). As for the experimental part: The efficacy of compounds against T. brucei bloodstream forms was evaluated using a modified resazurin-based assay previously described in literature.
A general note: The colour change of resazurin is a common sign of viable cells or microbes.

Data set [5] deals with T1, Leishmania major pteridine reductase 1 (LmPTR1). In words: LmPTR1 enzyme reporter assay (cytochrome-c reduction, 550 nm). The class given is biochemical. The settings on record: read-out: % Inhibition LmPTR1 (50 μM). As for the experimental part:
(§1) TbPTR1 and LmPTR1 were purified as reported in literature. The enzyme kinetic profile of each selected protein was characterized by a spectrophotometric assay. The experimental assay consists of enzyme kinetic reaction monitoring at 340 nm for a total time of 180 s. The enzyme kinetic activity was measured at steady-state concentration of 7,8-dihydro-L-biopterin (H2B) and NADPH substrates equal to 50 and 120 µM and varying the enzyme concentration in the 0.001–0.006 µM and 0.005–0.010–0.015–0.020–0.025–0.030 µM range for Lm- and TbPTR1, respectively. The resulting kcat values were equal to 0.68 (s^−1) and 7.2 (s^−1) for Tb- and LmPTR1, respectively. For both TbPTR1 and LmPTR1, the Km value evaluation assay for H2B- and NADPH-substrates was performed in the 0.3-0.6–0.9–1.2–2.4–4.8 µM and 3.0–6.0–12.0–40.0–90.0–190.0 µM concentrations range, respectively.
(§2) Compounds 1A–3A were evaluated as reported in our previous paper. The novel synthesized compounds 1–3 were tested towards TbPTR1 and LmPTR1 using the in vitro TbPTR1/LmPTR1 enzyme reporter assay. The experimental procedure consists of monitoring the non-enzymatic reduction reaction of cytochrome-c at 550 nm, related to the reduction reaction of H2B to tetrahydrobiopterin (H4B) by using NADPH as the cofactor. TbPTR1 and LmPTR1 enzyme activity was assayed in a buffer containing 20 mM sodium citrate (pH 6.0) in a final experimental volume equal to 600 µL. The final reaction mixture contained different substrates added in the following order: TbPTR1/LmPTR1 (0.018 µM/0.002 µM) in 20 mM Tris-HCl, glycerol 10% (v/v), pH 7.5; H2B at a final concentration equal to 0.3 µM; cytochrome-c (80 µM); Milli-Q water to a final volume of 600 µL and NADPH to a final concentration of 500 µM. Before the addition of NADPH, the reaction mixture was incubated for 10 min at 30 °C and 80 RPM. To allow the starting of the reaction, NADPH was added and the enzyme reaction was detected for a total time of 10 min at 30 °C, 550 nm. The inhibition profile characterization of compounds 1–3 was performed with a DU-640 spectrophotometer (Beckman Coulter, Brea, CA, USA). Each compound was assayed in duplicate against Tb/LmPTR1 target enzymes in the 0–10–25–50–80–150 µM concentrations range. At the different concentration values, the compounds were added to the reaction mixture (enzyme, H2B, cytochrome-c in 20 mM sodium citrate buffer and Milli-Q water) and incubated for 10 min at 30 °C, 80 RPM. The reaction was initiated by the addition of NADPH (500 µM) and monitored for 10 min at 30 °C, 550 nm. The absorbance values were processed by software analysis and transformed into the corresponding slopes. The percentages of inhibition and the IC50 values were determined.

Data set [6] deals with T2, Trypanosoma brucei pteridine reductase 1 (TbPTR1). In words: TbPTR1 enzyme reporter assay (cytochrome-c reduction, 550 nm). The class given is biochemical. The settings on record: read-out: % Inhibition TbPTR1 (50 μM), 50 μM; compounds 1–3 and control. As for the experimental part:
as §1, §2
In general terms: Reporter assays use an easily measured gene product as a stand-in for the process of interest.

Data set [7] concerns the molecule itself. The data set is described as follows: crystal structure; TbPTR1-NADP+-compound 1 ternary complex; sitting drop, room temperature, 1.5-2.5 M sodium acetate, 0.1 M sodium citrate pH 5.0; compound soaked into pre-formed crystals; one homotetramer in the asymmetric unit.
Data set [8] deals with the molecule itself. In words: crystal structure; LmPTR1-NADP+ ternary complexes with compound 1 and with compound 3; hanging drop, 293 K, 12% PEG 4600, 100 mM sodium acetate pH 5.5, 120-160 mM calcium acetate; compounds soaked into pre-formed crystals; one homotetramer in the asymmetric unit.

`O=c1c(O)c(-c2cccc(O)c2)oc2ccc(O)cc12` [Compound 1A]: in data set [1], the “% Inhibition LmPTR1 (50 μM)” value is 86.2% and the IC50 (commonly the point on the concentration scale where inhibition reaches its midpoint) is 12.5 µM. In addition, in data set [2], the “% Inhibition TbPTR1 (50 μM)” value is 96.1% and the IC50 was 4.3 µM.
As to `O=c1c(O)c(-c2ccc(O)cc2)oc2ccc(O)cc12` [Compound 2A], the “% Inhibition LmPTR1 (50 μM)” value in data set [1] is recorded as 10.8%. For the same molecule, the “% Inhibition TbPTR1 (50 μM)” value in data set [2] was 2.6%.
Take `O=c1c(O)c(-c2ccc(O)c(O)c2)oc2ccc(O)cc12` [Compound 3A]: in data set [1], the “% Inhibition LmPTR1 (50 μM)” value was 75.4% and the IC50 is 35 µM. In data set [2], the “% Inhibition TbPTR1 (50 μM)” value is listed as 53.1% and the IC50 was 38 µM.
As to `CCCCCCCCCCCCCCCCOP(=O)([O-])OCC[N+](C)(C)C` [miltefosine, reference compound], the IC50 in data set [3] came to 2.65 ± 0.4 µM.
Turning to `N=C(N)c1ccc(OCCCCCOc2ccc(C(=N)N)cc2)cc1` [pentamidine, reference compound], the IC50 in data set [4] was determined as 0.00155 ± 0.00024 µM.
In the case of `CCc1nc(N)nc(N)c1-c1ccc(Cl)cc1` [pyrimethamine, reference compound], the inhibition at 50 µM in data set [5] and in data set [6] was 100% in each case.

B1: Trypanosoma brucei pteridine reductase 1 (enzyme)
chain: MEAPAAVVTGAAKRIGRAIAVKLHQTGYRVVIHYHNSAEAAVSLADELNKERSNTAVVCQADLTNSNVLPASCEEIINSCFRAFGRCDVLVNNASAFYPTPLVQGDHEDNSNGKTVETQVAELIGTNAIAPFLLTMSFAQRQKGTNPNCTSSNLSIVNLCDAMVDQPCMAFSLYNMGKHALVGLTQSAALELAPYGIRVNGVAPGVSLLPVAMGEEEKDKWRRKVPLGRREASAEQIADAVIFLVSGSAQYITGSIIKVDGGLSLVHA
modifications: oxo-cysteine at residue 168
notes: pteridine reductase 1 (PTR1) of Trypanosoma brucei; Crystallised with the cofactor NADP+ and soaked with compound 1 (small molecules); also called TbPTR1; PTR1; source: expressed and purified as reported in literature [14]
For the molecule B1, the stoichiometry N (as a rule, a count of units in the complex or per binding partner) in data set [7] was found to be 4.

B2: Leishmania major pteridine reductase 1 (enzyme)
chain: MTAPTVPVALVTGAAKRLGRSIAEGLHAEGYAVCLHYHRSAAEANALSATLNARRPNSAITVQADLSNVATAPVSGADGSAPVTLFTRCAELVAACYTHWGRCDVLVNNASSFYPTPLLRNDEDGHEPCVGDREAMETATADLFGSNAIAPYFLIKAFAHRFAGTPAKHRGTNYSIINMVDAMTNQPLLGYTIYTMAKGALEGLTRSAALELAPLQIRVNGVGPGLSVLVDDMPPAVWEGHRSKVPLYQRDSSAAEVSDVVIFLCSSKAKYITGTCVKVDGGYSLTRA
notes: pteridine reductase 1 (PTR1) of Leishmania major; Crystallised with NADPH/NADP+ and soaked with compound 1 or 3 (small molecules); also called LmPTR1; PTR1; source: expressed and purified as reported in literature [14]
As for B2, the “stoichiometry N” value in data set [8] is 4.

The values are drawn from publication PMC6155272, “Chroman-4-One Derivatives Targeting Pteridine Reductase 1 and Showing Anti-Parasitic Activity” (Molecules : A Journal of Synthetic Chemistry and Natural …, 2017).
